Laboratory results taken from article PMC7026418, “The kinase polypharmacology landscape of clinical PARP inhibitors” (Scientific Reports, 2020).
Read-outs that look alike come from different tables or passages of the source. Each block holds one compound with its values, some of them ahead of it.

Experiments:
Assay in all cases: biochemical
Set-up in all cases: DiscoveRx KINOMEscan active site-directed competition binding; percent of control kinase bound to immobilised ligand
PLK1 = PLK1 (Homo sapiens, UniProt P53350)
TRKA = biological target: T1, TRKA (Homo sapiens, UniProt P04629)
T1 construct: gene NTRK1

CSNK1D = CSNK1D (Homo sapiens, UniProt P48730)
LATS2 = biological target: T2, LATS2 (Homo sapiens, UniProt Q9NRM7)
T2 sequence (Q9NRM7 1-1088): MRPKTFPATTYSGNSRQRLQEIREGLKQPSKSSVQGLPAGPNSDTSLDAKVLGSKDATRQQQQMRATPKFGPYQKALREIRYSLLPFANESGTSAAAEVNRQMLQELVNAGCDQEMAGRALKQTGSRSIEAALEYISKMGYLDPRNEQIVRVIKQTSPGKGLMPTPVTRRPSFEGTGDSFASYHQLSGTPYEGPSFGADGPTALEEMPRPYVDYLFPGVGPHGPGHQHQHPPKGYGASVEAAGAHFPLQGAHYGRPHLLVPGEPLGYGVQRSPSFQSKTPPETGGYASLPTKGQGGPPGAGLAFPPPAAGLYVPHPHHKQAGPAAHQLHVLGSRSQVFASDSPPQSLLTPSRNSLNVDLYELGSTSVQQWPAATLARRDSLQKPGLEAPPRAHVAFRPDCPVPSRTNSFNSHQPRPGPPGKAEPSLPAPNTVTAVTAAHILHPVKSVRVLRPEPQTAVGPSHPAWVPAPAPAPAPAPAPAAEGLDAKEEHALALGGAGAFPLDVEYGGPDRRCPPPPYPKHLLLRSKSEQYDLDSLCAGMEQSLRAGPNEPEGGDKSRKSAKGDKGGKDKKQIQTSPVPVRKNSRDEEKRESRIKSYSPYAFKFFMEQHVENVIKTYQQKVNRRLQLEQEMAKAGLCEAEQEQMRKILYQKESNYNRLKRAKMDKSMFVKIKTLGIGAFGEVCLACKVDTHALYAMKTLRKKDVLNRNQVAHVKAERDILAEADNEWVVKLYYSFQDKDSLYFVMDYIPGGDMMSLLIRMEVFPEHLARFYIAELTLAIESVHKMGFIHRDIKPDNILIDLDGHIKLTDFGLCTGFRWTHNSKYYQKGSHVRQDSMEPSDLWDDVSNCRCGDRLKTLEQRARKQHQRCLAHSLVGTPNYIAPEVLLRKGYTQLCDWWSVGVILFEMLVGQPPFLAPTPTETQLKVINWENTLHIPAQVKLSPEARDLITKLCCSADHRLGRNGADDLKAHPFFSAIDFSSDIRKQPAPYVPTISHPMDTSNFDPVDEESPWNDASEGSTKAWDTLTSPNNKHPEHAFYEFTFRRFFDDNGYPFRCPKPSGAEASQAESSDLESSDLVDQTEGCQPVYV

PRKX = biological target: T3, PRKX (Homo sapiens, UniProt P51817)
T3 sequence (P51817 1-358): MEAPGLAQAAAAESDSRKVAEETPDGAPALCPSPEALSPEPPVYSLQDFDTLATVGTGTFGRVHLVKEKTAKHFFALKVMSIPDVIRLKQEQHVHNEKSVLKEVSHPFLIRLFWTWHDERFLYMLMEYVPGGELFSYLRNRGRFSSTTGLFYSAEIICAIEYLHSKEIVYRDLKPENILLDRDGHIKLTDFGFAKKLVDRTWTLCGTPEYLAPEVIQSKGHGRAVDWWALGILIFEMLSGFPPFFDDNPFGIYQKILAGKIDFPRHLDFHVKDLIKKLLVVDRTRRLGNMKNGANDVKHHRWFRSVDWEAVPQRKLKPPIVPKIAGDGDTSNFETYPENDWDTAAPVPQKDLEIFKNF

[1] = biological target: T4, RSK2(Kin.Dom.1-N-terminal) (Homo sapiens, UniProt P51812)
T4 construct: gene RPS6KA3; Kin.Dom.1-N-terminal

NEK7 = NEK7 (Homo sapiens, UniProt Q8TDX7)
[2] = read-out: Niraparib (MK-4827) / %Ctrl @ 10000nM
[3] = read-out: Olaparib / %Ctrl @ 10000nM
[4] = read-out: Rucaparib / %Ctrl @ 10000nM, binding competition, % of control
[5] = read-out: Talazoparib (BMN 673) / %Ctrl @ 10000nM

Sequence of PLK1 (P53350 whole entry): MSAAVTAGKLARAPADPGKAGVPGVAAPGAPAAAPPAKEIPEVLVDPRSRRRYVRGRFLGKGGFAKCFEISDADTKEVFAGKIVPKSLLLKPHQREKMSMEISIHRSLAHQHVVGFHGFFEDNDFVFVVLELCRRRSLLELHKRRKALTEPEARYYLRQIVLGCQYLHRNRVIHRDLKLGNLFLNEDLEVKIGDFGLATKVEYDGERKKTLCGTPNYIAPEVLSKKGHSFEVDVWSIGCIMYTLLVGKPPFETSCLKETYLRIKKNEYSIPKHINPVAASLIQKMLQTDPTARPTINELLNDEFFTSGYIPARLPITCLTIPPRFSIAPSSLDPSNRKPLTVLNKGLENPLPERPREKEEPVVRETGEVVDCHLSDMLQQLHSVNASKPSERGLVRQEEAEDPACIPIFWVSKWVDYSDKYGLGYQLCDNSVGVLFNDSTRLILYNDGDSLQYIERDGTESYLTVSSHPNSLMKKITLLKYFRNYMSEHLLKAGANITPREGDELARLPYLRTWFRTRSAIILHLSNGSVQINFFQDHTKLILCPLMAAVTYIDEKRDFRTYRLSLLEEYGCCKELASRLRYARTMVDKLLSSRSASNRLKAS
T4 sequence (P51812 whole entry): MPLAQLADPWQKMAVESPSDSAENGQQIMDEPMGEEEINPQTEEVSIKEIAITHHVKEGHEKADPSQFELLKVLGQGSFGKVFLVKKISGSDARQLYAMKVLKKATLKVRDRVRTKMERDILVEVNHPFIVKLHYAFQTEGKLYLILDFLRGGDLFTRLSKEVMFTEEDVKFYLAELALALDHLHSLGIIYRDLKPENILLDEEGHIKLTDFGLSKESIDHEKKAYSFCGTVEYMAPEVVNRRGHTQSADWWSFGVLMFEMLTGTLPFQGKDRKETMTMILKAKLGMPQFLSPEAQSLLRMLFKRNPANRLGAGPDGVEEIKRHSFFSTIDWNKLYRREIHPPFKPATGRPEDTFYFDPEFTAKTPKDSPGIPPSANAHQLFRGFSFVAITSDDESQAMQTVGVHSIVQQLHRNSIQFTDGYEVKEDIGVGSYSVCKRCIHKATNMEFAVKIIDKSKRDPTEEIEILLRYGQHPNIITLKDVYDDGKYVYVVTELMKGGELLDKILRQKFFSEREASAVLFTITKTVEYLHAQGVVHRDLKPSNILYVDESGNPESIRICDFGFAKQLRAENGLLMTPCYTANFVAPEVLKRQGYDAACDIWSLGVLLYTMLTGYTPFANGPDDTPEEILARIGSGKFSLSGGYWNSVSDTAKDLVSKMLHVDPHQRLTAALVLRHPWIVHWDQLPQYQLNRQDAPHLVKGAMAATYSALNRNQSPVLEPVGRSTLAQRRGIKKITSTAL
Sequence of CSNK1D (P48730 whole entry): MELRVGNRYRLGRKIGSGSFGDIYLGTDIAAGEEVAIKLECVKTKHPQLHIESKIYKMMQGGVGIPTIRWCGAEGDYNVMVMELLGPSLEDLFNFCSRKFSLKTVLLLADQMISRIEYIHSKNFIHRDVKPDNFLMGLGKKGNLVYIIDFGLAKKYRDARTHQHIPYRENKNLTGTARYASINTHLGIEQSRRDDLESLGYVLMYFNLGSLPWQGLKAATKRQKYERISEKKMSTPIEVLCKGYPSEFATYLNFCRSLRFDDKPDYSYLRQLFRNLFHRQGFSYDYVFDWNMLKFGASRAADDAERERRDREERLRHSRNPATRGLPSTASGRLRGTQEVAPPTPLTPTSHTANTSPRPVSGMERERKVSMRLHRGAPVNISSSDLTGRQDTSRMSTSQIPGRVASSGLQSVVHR
Sequence of NEK7 (Q8TDX7 whole entry): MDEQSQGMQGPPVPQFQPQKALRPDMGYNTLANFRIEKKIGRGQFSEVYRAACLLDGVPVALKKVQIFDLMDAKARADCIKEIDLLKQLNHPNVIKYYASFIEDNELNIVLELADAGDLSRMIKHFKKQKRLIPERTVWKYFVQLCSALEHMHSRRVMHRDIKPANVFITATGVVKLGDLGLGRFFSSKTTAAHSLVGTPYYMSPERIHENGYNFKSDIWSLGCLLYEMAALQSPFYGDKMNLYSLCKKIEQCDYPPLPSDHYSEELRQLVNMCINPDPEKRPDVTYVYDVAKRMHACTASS
T1 sequence (P04629 whole entry): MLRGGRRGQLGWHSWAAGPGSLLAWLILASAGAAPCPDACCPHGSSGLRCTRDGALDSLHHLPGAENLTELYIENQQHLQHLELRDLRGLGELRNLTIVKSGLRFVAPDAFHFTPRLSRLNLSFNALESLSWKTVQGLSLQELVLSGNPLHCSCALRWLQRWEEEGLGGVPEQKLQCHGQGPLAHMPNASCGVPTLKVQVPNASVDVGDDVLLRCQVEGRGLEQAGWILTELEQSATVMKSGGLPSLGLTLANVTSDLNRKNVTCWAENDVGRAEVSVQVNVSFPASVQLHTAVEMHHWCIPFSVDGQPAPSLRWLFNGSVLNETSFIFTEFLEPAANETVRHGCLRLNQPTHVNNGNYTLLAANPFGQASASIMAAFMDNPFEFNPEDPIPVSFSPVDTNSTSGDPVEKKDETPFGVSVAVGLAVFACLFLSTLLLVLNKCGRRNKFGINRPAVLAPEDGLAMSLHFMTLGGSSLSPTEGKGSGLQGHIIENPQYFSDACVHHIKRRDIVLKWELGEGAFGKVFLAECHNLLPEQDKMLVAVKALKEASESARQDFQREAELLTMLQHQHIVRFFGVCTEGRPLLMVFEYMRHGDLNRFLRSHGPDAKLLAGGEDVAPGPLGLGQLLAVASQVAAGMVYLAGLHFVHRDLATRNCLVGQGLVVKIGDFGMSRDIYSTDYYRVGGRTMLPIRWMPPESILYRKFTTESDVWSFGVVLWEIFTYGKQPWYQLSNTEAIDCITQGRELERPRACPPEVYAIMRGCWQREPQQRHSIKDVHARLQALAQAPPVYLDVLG

Structure (SMILES): NC(=O)c1cccc2cn(-c3ccc([C@@H]4CCCNC4)cc3)nc12 [Niraparib]
- percent of control binding at 10 µM (PLK1; [2]): 100%
- percent of control binding at 10 µM (TRKA; [2]): 99%
- percent of control binding at 10 µM (CSNK1D; [2]): 57%
- percent of control binding at 10 µM (LATS2; [2]): 4.2%
- percent of control binding at 10 µM (PRKX; [2]): 96%
- percent of control binding at 10 µM [1, 2]: 94%
- percent of control binding at 10 µM (NEK7; [2]): 88%

- percent of control binding at 10 µM (PLK1; [3]): 85%
- percent of control binding at 10 µM (TRKA; [3]): 91%
- percent of control binding at 10 µM (CSNK1D; [3]): 96%
- percent of control binding at 10 µM (LATS2; [3]): 77%
- percent of control binding at 10 µM (PRKX; [3]): 88%
- percent of control binding at 10 µM [1, 3]: 94%
- percent of control binding at 10 µM (NEK7; [3]): 98%
Structure (SMILES): O=C(c1cc(Cc2n[nH]c(=O)c3ccccc23)ccc1F)N1CCN(C(=O)C2CC2)CC1 [Olaparib]

- percent of control binding at 10 µM (PLK1; [4]): 66%
- percent of control binding at 10 µM (TRKA; [4]): 74%
- percent of control binding at 10 µM (CSNK1D; [4]): 63%
- percent of control binding at 10 µM (LATS2; [4]): 48%
- percent of control binding at 10 µM (PRKX; [4]): 92%
- percent of control binding at 10 µM [1, 4]: 52%
- percent of control binding at 10 µM (NEK7; [4]): 100%
Structure (SMILES): CNCc1ccc(-c2[nH]c3cc(F)cc4c3c2CCNC4=O)cc1 [Rucaparib]

- percent of control binding at 10 µM (PLK1; [5]): 89%
- percent of control binding at 10 µM (TRKA; [5]): 100%
- percent of control binding at 10 µM (CSNK1D; [5]): 100%
- percent of control binding at 10 µM (LATS2; [5]): 82%
- percent of control binding at 10 µM (PRKX; [5]): 94%
- percent of control binding at 10 µM [1, 5]: 88%
- percent of control binding at 10 µM (NEK7; [5]): 80%
Structure (SMILES): Cn1ncnc1[C@H]1c2n[nH]c(=O)c3cc(F)cc(c23)N[C@@H]1c1ccc(F)cc1 [Talazoparib]
